From ChEMBL document CHEMBL1137543, “Phenylimidazole derivatives as specific inhibitors of bacterial enoyl-acyl carrier protein reductase FabK” (Bioorg Med Chem, 2007)
Values after ≈ are worked out from the molar mass of the structure shown.

Tests used:
[1] = target: T1, Enoyl-[acyl-carrier-protein] reductase [NADH] FabI (Escherichia coli K-12, UniProt P0AEK4); experiment: Inhibition of Escherichia coli enoyl-ACP reductase FabI
T1 sequence (P0AEK4 whole entry): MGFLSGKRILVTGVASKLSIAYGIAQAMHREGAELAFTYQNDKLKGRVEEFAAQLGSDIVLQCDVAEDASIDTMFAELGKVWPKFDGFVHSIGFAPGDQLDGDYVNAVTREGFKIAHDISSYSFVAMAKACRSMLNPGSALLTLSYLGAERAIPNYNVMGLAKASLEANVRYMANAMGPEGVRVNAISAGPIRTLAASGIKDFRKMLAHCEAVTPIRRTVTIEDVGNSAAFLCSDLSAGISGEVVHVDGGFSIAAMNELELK

[2] = target: T2, Enoyl-(Acyl-carrier-protein) reductase (Streptococcus pneumoniae, UniProt Q9FBC5); experiment: Inhibition of Streptococcus pneumoniae enoyl-ACP reductase FabK
T2 sequence (Q9FBC5 whole entry): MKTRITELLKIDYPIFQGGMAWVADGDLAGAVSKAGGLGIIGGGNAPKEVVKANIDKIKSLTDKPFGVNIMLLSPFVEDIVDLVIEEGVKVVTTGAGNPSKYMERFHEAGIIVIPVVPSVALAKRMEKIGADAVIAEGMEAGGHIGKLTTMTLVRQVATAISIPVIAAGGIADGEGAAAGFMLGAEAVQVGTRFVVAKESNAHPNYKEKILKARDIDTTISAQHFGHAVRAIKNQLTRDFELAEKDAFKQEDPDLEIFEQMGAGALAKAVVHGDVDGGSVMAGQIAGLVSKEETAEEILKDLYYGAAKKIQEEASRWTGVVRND

Streptococcus pneumoniae = experiment: Antibacterial activity against Streptococcus pneumoniae KU197 mutant by broth microdilution method; format: functional
K562 = experiment: Cytotoxicity against human K562 cells; format: functional, cell-based

SMILES	IC50 [1] [µM]	IC50 [2] [µM]	MIC (Streptococcus pneumoniae) [µg/mL]	IC50 (K562) [µM]
NC(=O)c1ccc(Sc2cnc(NC(=O)NCc3nc(-c4ccccc4)c[nH]3)s2)cc1	> 32	0.037	2 (≈ 4.44 µM)	
O=C(NCc1nc(-c2ccccc2)c[nH]1)Nc1ncc(Sc2ccc(C(=O)O)cc2)s1	> 32	0.098	8 (≈ 17.7 µM)	
O=C(CO/N=C/c1cccc([N+](=O)[O-])c1)Nc1nc2ccccc2s1	> 32	1.1	> 32	
O=C(CSc1nc2ccccc2[nH]1)NCc1nc2ccccc2s1	> 32	> 32	> 32	
CS(=O)(=O)c1ccc2nc(NC(=O)NCc3ccc(-c4ccccn4)s3)sc2c1	> 32	3.4	> 32	
CS(=O)(=O)c1ccc2nc(NC(=O)NCc3cccnc3)sc2c1	> 32	23	> 32	
CS(=O)(=O)c1ccc2nc(NC(=O)NCCc3cnc[nH]3)sc2c1	> 32	> 32		
O=C(Nc1nc2ccccc2s1)OCc1nc2ccccc2[nH]1	> 32	> 32	> 32	
COc1cccc2sc(NC(=O)NCc3nc4ccccc4[nH]3)nc12	> 32	> 32		
COc1ccc2sc(NC(=O)NCc3nc4ccccc4[nH]3)nc2c1	> 32	> 32		
O=C(NCc1nc(-c2ccccc2)c[nH]1)Nc1ncc(-c2ccccc2)s1	> 32	0.38	4 (≈ 10.7 µM)	
O=C(NCc1nc(-c2ccccc2)c[nH]1)Nc1ncc(Sc2ccccc2)s1	> 33	0.037	2 (≈ 4.91 µM)	
Cc1ccc2nc(NC(=O)NCc3nc4ccccc4[nH]3)sc2c1	> 32	2.6	16 (≈ 47.4 µM)	
N#Cc1ccc2nc(NC(=O)NCc3nc4ccccc4[nH]3)sc2c1	> 32	4.5	8 (≈ 23 µM)	
CS(=O)(=O)c1ccc2nc(NC(=O)NCc3nc4ccccc4[nH]3)sc2c1	> 32	0.74	4 (≈ 9.96 µM)	
O=C(NCc1ncc(-c2ccccc2)[nH]1)Nc1ncc(Sc2ccccn2)s1	> 32		2 (≈ 4.9 µM)	
O=C(NCc1ncc(-c2ccc(Br)cc2)[nH]1)Nc1ncc(Sc2ccccn2)s1	> 32		0.25 (≈ 0.513 µM)	> 20
CS(=O)(=O)c1ccc2nc(NC(=O)NCc3nc(-c4ccccc4)c[nH]3)sc2c1	> 32	0.088	0.5 (≈ 1.17 µM)	
O=C(NCc1ncc(-c2cccc(Br)c2)[nH]1)Nc1ncc(Sc2ccccn2)s1	> 32		16 (≈ 32.8 µM)	
O=C(CSc1nc2ccccc2[nH]1)Nc1nc2ccccc2s1	> 32	> 32	> 32	
O=C(NCc1ncc(-c2ccc(Cl)c(Cl)c2)[nH]1)Nc1ncc(Sc2ccccn2)s1	> 32	0.0037	1 (≈ 2.09 µM)	
O=C(NCc1nc(-c2ccccc2)c[nH]1)Nc1nc(-c2ccccc2)cs1	> 32	> 32		
O=C(NCc1nc2ccccc2[nH]1)Nc1nc2ccccc2s1	> 32	6.9	32 (≈ 99 µM)	
O=C(NCc1nc2ccccc2[nH]1)Nc1nc2ccc(F)cc2s1	> 32	6.4		
CS(=O)(=O)c1ccc2nc(NC(=O)NCc3cccs3)sc2c1	> 32	30	> 32	
COc1ccc2nc(NC(=O)NCc3nc4ccccc4[nH]3)sc2c1	> 32	2	16 (≈ 45.3 µM)	
Oc1cc(Cl)ccc1Oc1ccc(Cl)cc1Cl [TRICLOSAN]		> 32		
